The target of data set [1] is T1, 5-HT2C receptor (Homo sapiens, UniProt P28335).
T1 sequence (P28335 33-458): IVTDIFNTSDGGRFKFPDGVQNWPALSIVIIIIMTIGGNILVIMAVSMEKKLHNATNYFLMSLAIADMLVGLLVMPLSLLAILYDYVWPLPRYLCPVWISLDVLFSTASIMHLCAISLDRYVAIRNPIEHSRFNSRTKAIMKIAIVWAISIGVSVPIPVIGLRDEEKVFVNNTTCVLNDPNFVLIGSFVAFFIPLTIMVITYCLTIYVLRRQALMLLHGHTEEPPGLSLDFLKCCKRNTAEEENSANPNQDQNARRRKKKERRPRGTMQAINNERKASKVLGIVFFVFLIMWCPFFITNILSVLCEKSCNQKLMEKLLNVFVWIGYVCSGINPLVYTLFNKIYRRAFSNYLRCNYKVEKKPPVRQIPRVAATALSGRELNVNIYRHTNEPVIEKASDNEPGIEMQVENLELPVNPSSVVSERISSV
The experiment in a line: 5-HT2C receptor affinity. It is filed as binding.

Data set [2] addresses T1, 5-HT2C receptor. The experiment in a line: 5-HT2C receptor agonist function. It is filed as biochemical.
The subject of data set [3] is schedule-induced polydipsia. The experiment in a line: Schedule-induced polydipsia model of obsessive-compulsive disorder (adjunctive drinking). It is filed as in vivo, Sprague-Dawley rat. As to conditions: for reduction in adjunctive drinking behavior: relative to vehicle. From the text: In this model, a food pellet is delivered once per minute for a two-hour period. A water bottle is available in the test chamber. […] This excessive manifestation of a normal behavior (drinking) provides face validity to the model. […] Most importantly, clinically effective drugs for the treatment of obsessive-compulsive disorder decrease adjunctive drinking.
Male Sprague-Dawley rats weighing 300-400 grams were individually housed in an AALAC-accredited facility that was maintained on a 12-h light dark cycle (lights on at 0600 h) with freely available water. All in vivo studies were performed in accordance to the Guide for the Care and Use of Laboratory Animals as adopted and promulgated by the National Institutes of Health (Pub. 85-23, 1985). Rats were maintained at approximately 85% of their free-feeding body weights by food presented during the session and by post-session feeding.
Procedure Experimental sessions were conducted in a standard operant conditioning chamber placed inside a ventilated sound-attenuating shell that was equipped with white noise to mask extraneous sounds (Med Associates, Georgia, Vt.). A food trough was on the front panel of the chamber and a water bottle was mounted to the side panel. Experimental sessions were 120 minutes in duration and were conducted five days per week (Monday through Friday). Test sessions occurred generally on Tuesdays and Fridays, with the remaining days serving as control days. For each session, one food pellet (Bioserv, 45 mg precision dustless pellet) was dispensed into the food trough each minute for the duration of the session, for a total of 120 pellets being delivered. This schedule of food presentation elicits an abnormal adjunctive drinking behavior in rats such that they consume and exaggerated volume of water, approximately 5-10 fold larger than under normal conditions. Compound 1 or vehicle was administered immediately prior to the start of the experimental session. Each dose of Compound 1 was tested on a separate day, with the appropriate control sessions being conducted prior to each test. At the end of the test session, the volume of water and the number of food pellets that each rat consumed were measured.
(§1) Water consumption was calculated and expressed as percent (%) of vehicle control intake. Results were analyzed using a one-way ANOVA with least significant difference (LSD) post-hoc test. […] Where appropriate, ED50 values (dose that decreases adjunctive water intake to 50% of vehicle values) were calculated using a logistic dose response analysis.

The subject of data set [4] is normal eating and drinking behavior. The experiment in a line: Modified procedure for normal feeding and drinking behavior (120 pellets at session start). The format is in vivo, Sprague-Dawley rat. Particulars: 1 mg/kg. As for the experimental part:
In order to determine if Compound 1 would affect normal eating and drinking behavior, Compound 1 or vehicle was tested under modified conditions. Under these modified conditions, 120 food pellets were placed into the food trough at the beginning of the session and no further food pellets were dispensed. At the end of the test session, the volume of water and the number of food pellets consumed by each rat were measured as described earlier.
as §1

In data set [5] the test system is acetylcholine in medial prefrontal cortex. The experiment in a line: In vivo microdialysis, acetylcholine in medial prefrontal cortex. As to conditions: 1.7 mg/kg s.c. On the set-up: species or system Sprague-Dawley rat. As for the experimental part:
Animals: Adult male Sprague-Dawley rats (Charles River, Wilmington, Mass.) weighing 280-350 g at the time of surgery were used for all microdialysis experiments. Adult male Long-Evans rats (Charles River, Wilmington, Mass.) weighing 180-220 g were used for NOR studies. Rats were housed individually for recognition memory studies. All animals had free access to food and water and were group housed in the AAALAC-accredited facility that was maintained on a 12 h light dark cycle (lights on at 0600 h) for at least 1 week prior to surgery or behavioral testing. All in vivo studies were performed in accordance to the ‘Guide for the Care and Use of Laboratory Animals’ as adopted and promulgated by the National Institutes of Health (Pub. 85-23, 1985). […]
Analysis of Acetylcholine Dialysate levels of acetylcholine were determined using LC/MS/MS. […]
Acetylcholine data were quantified using peak area against an internal standard and acquired using Masslynx software (Micromass, Beverly, Mass., USA). The mean of the concentration of baseline samples was calculated and denoted as 0%. All sample values were expressed as a percent change from this pre-injection mean baseline value (% change from baseline). Neurochemical data, excluding pre-injection values, were analyzed by a two-way analysis of variance (ANOVA) with repeated measures (time). […]

The test system of data set [6] is extracellular glutamate levels in the rat mPFC. The experiment in a line: In vivo microdialysis, extracellular glutamate in mPFC. On the set-up: species or system Sprague-Dawley rat. As to conditions: 1.7 mg/kg s.c., acute, F(1,15)=4.76, P=0.0454 vs vehicle. As for the experimental part: Animals: Adult male Sprague-Dawley rats (Charles River, Wilmington, Mass.) weighing 280-350 g at the time of surgery were used for all microdialysis experiments. Adult male Long-Evans rats (Charles River, Wilmington, Mass.) weighing 180-220 g were used for NOR studies. Rats were housed individually for recognition memory studies. All animals had free access to food and water and were group housed in the AAALAC-accredited facility that was maintained on a 12 h light dark cycle (lights on at 0600 h) for at least 1 week prior to surgery or behavioral testing. All in vivo studies were performed in accordance to the ‘Guide for the Care and Use of Laboratory Animals’ as adopted and promulgated by the National Institutes of Health (Pub. 85-23, 1985).
Stereotaxic Surgery Following induction of anesthesia with 3% halothane (Fluothane; Zeneca, Cheshire, UK), animals were secured in a stereotaxic frame with ear and incisor bars (David Kopf, Tujunga, Calif.). Anesthesia was maintained by continuous administration of halothane (1-2%) while a microdialysis guide cannula (CMA/12, CMA Microdialysis, Stockholm, Sweden) was implanted above the dorsal hippocampus (AP: −4.3 mm ML: −2.6 mm DV: −2.1 mm) or the medial prefrontal cortex (AP: 3.2 mm ML: −0.6 mm DV: −3.8 mm). […]
Dialysate (10 μL) was collected and analyzed for extracellular glutamate concentrations. […]

One may read the Ki as the dissociation constant of the complex between target and ligand, obtained from inhibition or displacement. One may read the EC50 as the concentration that produces a half-maximal response. Higher therefore signals a need for much substance. As a reminder, the ED50 is the midpoint of the dose-response relation. For the molecule `NC[C@H]1Cc2cc(F)cc(-c3c(Cl)cccc3Cl)c2O1` (stereo in doubt) [Compound 1, (7-(2,6-dichlorophenyl)-5-fluoro-2,3-dihydrobenzofuran-2-yl)methanamine], affinity at 5-HT2C receptor [1] was put at a Ki of 0.37 nM. In addition, on 5-HT2C receptor [2], a half-maximal response (EC50) required 0.4 nM and the “agonist character at the 5-HT2C receptor” value is recorded as “potent full agonist”. Besides, the “reduction in adjunctive drinking behavior” value in data set [3] (0.3 mg/kg i.p., p=0.003) was 45%. Moreover, the “rats not eating all food pellets presented” value in data set [3] (1 mg/kg i.p., schedule-induced polydipsia session) is listed as “one of the six rats did not eat all of the food pellets presented”. For the same molecule, the “reduction in adjunctive drinking behavior” value in data set [3] (1 mg/kg i.p., p<0.0001) was 81%. For the same molecule, in data set [3] (0.1-1 mg/kg, i.p., acute, F(3,20)=16.91, p<0.0001), the “effect on adjunctive drinking behavior” value was “dose-dependent decrease”. For the same molecule, in data set [3] (Rattus norvegicus, ip, 95% CI: 0.22-0.57 mg/kg, read-out: ED50 (dose that decreases adjunctive water intake to 50% of vehicle values)), the ED50 was determined as 0.36 mg/kg. Moreover, the “decrease in water consumption relative to vehicle controls” value in data set [4] (modified procedure (normal drinking)) was found to be 26%. The “rats failing to eat all food pellets presented” value in data set [4] (modified procedure (normal feeding)) is listed as “two of the six rats tested failed to eat all of the food pellets presented”. Further, in data set [5], the “maximal increase in acetylcholine with respect to baseline” value came to 48%. The same molecule yielded an extracellular glutamate levels in data set [6] of 132%.

(Values after US20070225334A1, “Methods for treating cognitive and other disorders” (Wyeth, priority 2006, published 2007).)
